In brackets after ≈: the same amount, converted by molar mass.
Assays:
[1] = Stability with oxidizing and reducing agents at pH 7 and pH 9 (HPLC); assay type: physicochemical
Description: Oxidizing agents (2 mM) included hydrogen peroxide (H2O2; 68 ppm), t-butyl hydrogen peroxide (t-BHP; 180 ppm), and potassium persulfate (K2O8S2; 540 ppm). Reducing agents (2 mM) included iso-ascorbic acid (IAA; 352 ppm) and sodium bisulfite (NaHSO3; 208 ppm). Biocides were tested at 1 mM concentrations, representing 115 ppm MI and […].
The pH 7.0 buffer contained 0.00426% monopotassium phosphate plus 0.019% magnesium chloride hexahydrate. The pH 9.0 buffer contained 0.0046 M hydrochloric acid plus 0.013 M borax. Stock solutions of the redox agents were prepared and added to aliquots of each buffer to give 2 mM concentrations. The biocides were then added to give 1 mM concentrations. The samples were stored at 25° C. and analyzed for biocide level by HPLC at 0, 2 and 8 days.

Bacteria = assay: MIC, average over bacteria; assay type: cell-based
Description: (§1) Minimum inhibitory concentration (MIC) studies were conducted to determine the lowest level of biocide required to inhibit growth of bacteria and fungi. Tests were conducted in 96-well microtiter plates. Biocides were added to growth media in the plates and serially diluted to obtain a range of concentrations. Bacterial tests were conducted in trypticase soy broth (TSB; pH 7) using an overnight inoculum added at 10^6 colony forming units per ml. […] Fungal tests were conducted in malt extract broth (MEB; pH 4.7) using an 5-7 day inoculum added at 10^4 colony forming units per ml.

Fungi = assay: MIC, average over fungi; assay type: cell-based
Description: as §1

bacteria and fungi = assay: MIC pH 9.0 versus pH 7.1, all nine organisms; assay type: cell-based; details: over the nine organisms tested
Description: Minimum inhibitory concentration (MIC) studies were conducted to determine the lowest level of biocide required to inhibit growth of bacteria and fungi. Tests were conducted in 96-well microtiter plates. Biocides were added to growth media in the plates and serially diluted to obtain a range of concentrations. Tests were conducted in one-half strength trypticase soy broth (TSB; adjusted to pH 7.1 or pH 9.0). Bacteria and fungi were added to samples at 10^6 colony forming units per ml and incubated at 30° C. for three days. MIC values were determined visually on a growth no-growth basis.

[2] = tested on: Mycobacterium chelonae (ATCC 14472); assay: MBC test, transfer from MIC plates to fresh media; assay type: cell-based; details: M. chelonae, no survivors after 2 days in fresh media
Description: (§2) Bacterial strains tested included Mycobacterium chelonae (ATCC 14472) and Mycobacterium immunogenum (ATCC 700505). Mycobacterial cultures were grown overnight at 30° C. (M. immunogenum) or 37° C. (M. chelonae), in a rotary shaking bath in Middlebrook […] with Middlebrook enrichment. A 1:20 dilution of the overnight culture was made into the appropriate test media and inoculated to give a final concentration of 10^6 to 10^7 CFU/ml.
(§3) MBC tests were conducted by transferring samples from the MIC test samples into fresh media and observing for growth of the culture. Growth was determined as above. In this test using Biomek 2000 Workstation, 10 μl samples taken from the 96-well MIC plates were placed in […] of fresh growth media to determine the number of surviving organisms for the same gradient of biocide concentrations. These plates were incubated and read in the same fashion as the MIC plates.

[3] = tested on: Mycobacterium immunogenum (ATCC 700505); assay: MBC test, transfer from MIC plates to fresh media; assay type: cell-based; details: M. immunogenum, no survivors after 2 days in fresh media
Description: as §2, §3

[4] = tested on: natural, resident populations of Mycobacterium; assay: Eradication of mycobacteria in naturally contaminated in-use metalworking fluids; assay type: cell-based; details: for No. of Fluids with ≧99% Kill (2-log reduction): of six fluids, 48 hours
Description: A comparative study was conducted evaluating six metalworking fluid biocides versus natural, resident populations of Mycobacterium from six in-use metalworking fluids. CMIT/MIT, CMIT/MIT/MCC, MIT, BIT, triazine, and PCMC microbicides were tested under controlled laboratory conditions to determine their efficacy at the maximum manufacturer's recommended dose rate (Table 2). The metalworking fluids were known to contain high levels of mycobacteria prior to dosing with biocides. Samples were then dosed with biocides, incubated with agitation at room temperature and viable mycobacteria counts determined after 48 hours by plating onto Middlebrook 7H10 medium, with Tween 80, glycerin, cyclohexamide, chloramphenicol, and gentamycin to suppress the growth of unwanted microorganisms.
The six metalworking fluid samples containing mycobacteria study from Example 7, were also tested using the same biocides with dosing at 50% of the maximum manufacturer's recommended rate (Table 2) under the same conditions. These metalworking fluids were known to contain high levels of mycobacteria prior to dosing with biocides. Samples were then dosed with biocides, incubated with agitation at room temperature and viable mycobacteria counts determined after 48 hours by plating onto Middlebrook 7H10 medium, with Tween 80, glycerin, cyclohexamide, chloramphenicol, and gentamycin to suppress the growth of unwanted microorganisms.

[5] = Stability in pH 9 buffer solution at 70° C. (HPLC); details: for loss of active ingredient: day 56
Description: pH 9 buffer containing 0.069 M boric acid, 0.017 M citric acid, 0.066 M sodium phosphate was prepared in distilled water. Biocide was dosed into the pH 9 buffer solution and stored at 70° C. in a heat block. The samples were examined for active ingredient concentration at the time points after 5 hours, and 1, 3, 7, 23, 30, 35 and 56 days. Initial biocide doses were 166 ppm MI, 199 ppm BIT and 150 ppm BNPD.
The samples were evaluated for active ingredient concentration via High Pressure Liquid Chromatography. Samples were taken from the heating blocks and allowed to cool to room temperature for 30 minutes. The samples were then diluted 1:20 in deionized water by adding 9.5 ml of deionized water to 0.5 grams of the samples in a 25 ml glass sample vial. The samples were mixed for 15 seconds and transferred to HPLC sample vials for analysis.

[6] = K-persulfate 2 mM, pH 7, 25° C.
[7] = K-persulfate 2 mM, pH 9, 25° C.
[8] = Na bisulfite 2 mM, pH 7, 25° C.
[9] = Na bisulfite 2 mM, pH 9, 25° C.
[10] = Fluid 1, 48 hours, 50% of recommended maximum dose
[11] = Fluid 1, 48 hours, 100% of recommended maximum dose
[12] = Fluid 2, 48 hours, 50% of recommended maximum dose
[13] = Fluid 2, 48 hours, 100% of recommended maximum dose
[14] = Fluid 3, 48 hours, 50% of recommended maximum dose
[15] = Fluid 3, 48 hours, 100% of recommended maximum dose
[16] = Fluid 4, 48 hours, 50% of recommended maximum dose
[17] = Fluid 4, 48 hours, 100% of recommended maximum dose
[18] = Fluid 5, 48 hours, 50% of recommended maximum dose
[19] = Fluid 5, 48 hours, 100% of recommended maximum dose
[20] = Fluid 6, 48 hours, 50% of recommended maximum dose
[21] = Fluid 6, 48 hours, 100% of recommended maximum dose

Cn1sccc1=O [MI, 2-methyl-4-isothiazolin-3-one]
% Remaining after 2 Days ([1]; H2O2 2 mM, pH 7, 25° C.): 100% | % Remaining after 8 Days ([1]; H2O2 2 mM, pH 7, 25° C.): 100% | % Remaining after 2 Days ([1]; H2O2 2 mM, pH 9, 25° C.): 94% | % Remaining after 8 Days ([1]; H2O2 2 mM, pH 9, 25° C.): 88% | % Remaining after 2 Days ([1]; IAA 2 mM, pH 7, 25° C.): 100% | % Remaining after 8 Days ([1]; IAA 2 mM, pH 7, 25° C.): 96% | % Remaining after 2 Days ([1]; IAA 2 mM, pH 9, 25° C.): 105% | % Remaining after 8 Days ([1]; IAA 2 mM, pH 9, 25° C.): 103% | % Remaining after 2 Days [1, 6]: 90% | % Remaining after 8 Days [1, 6]: 75% | % Remaining after 2 Days [1, 7]: 93% | % Remaining after 8 Days [1, 7]: 73% | % Remaining after 2 Days [1, 8]: 29% | % Remaining after 8 Days [1, 8]: 26% | % Remaining after 2 Days [1, 9]: 70% | % Remaining after 8 Days [1, 9]: 78% | % Remaining after 2 Days ([1]; no redox agent, pH 7, 25° C.): 100% | % Remaining after 8 Days ([1]; no redox agent, pH 7, 25° C.): 100% | % Remaining after 2 Days ([1]; no redox agent, pH 9, 25° C.): 100% | % Remaining after 8 Days ([1]; no redox agent, pH 9, 25° C.): 100% | % Remaining after 2 Days ([1]; t-BHP 2 mM, pH 7, 25° C.): 99% | % Remaining after 8 Days ([1]; t-BHP 2 mM, pH 7, 25° C.): 102% | % Remaining after 2 Days ([1]; t-BHP 2 mM, pH 9, 25° C.): 98% | % Remaining after 8 Days ([1]; t-BHP 2 mM, pH 9, 25° C.): 96% | MIC (Bacteria; average over the bacteria tested): 24 µg/mL (≈ 208 µM) | MI: CMI + MI MIC Ratio (Bacteria; bacteria, ratio of average MICs): 10.9 | MI: CMI + MI MIC Ratio (Fungi; fungi, ratio of average MICs): 46.8 | MIC (Fungi; read-out: MIC, Average): 63 µg/mL (≈ 547 µM) | change of MIC at pH 9.0 versus pH 7.1 (bacteria and fungi): ≤ 2 × | Minimum Biocidal Concentration [2]: 40 ppm active | Minimum Biocidal Concentration [3]: 84 ppm active | Log Reduction in Mycobacterial Counts versus Control (no biocide) [4, 10]: 3.48 log | Log Reduction in Mycobacterial Counts versus Control (no biocide) [4, 11]: 5.88 log | Log Reduction in Mycobacterial Counts versus Control (no biocide) [4, 12]: 3.80 log | Log Reduction in Mycobacterial Counts versus Control (no biocide) [4, 13]: 5.00 log | Log Reduction in Mycobacterial Counts versus Control (no biocide) [4, 14]: 0.00 log | Log Reduction in Mycobacterial Counts versus Control (no biocide) [4, 15]: 2.00 log | Log Reduction in Mycobacterial Counts versus Control (no biocide) [4, 16]: 2.00 log | Log Reduction in Mycobacterial Counts versus Control (no biocide) [4, 17]: 3.64 log | Log Reduction in Mycobacterial Counts versus Control (no biocide) [4, 18]: 0.06 log | Log Reduction in Mycobacterial Counts versus Control (no biocide) [4, 19]: 1.90 log | Log Reduction in Mycobacterial Counts versus Control (no biocide) [4, 20]: 1.78 log | Log Reduction in Mycobacterial Counts versus Control (no biocide) [4, 21]: 3.88 log | kill (minimum degree of efficacy) ([4]; in all six samples of contaminated fluids, maximum recommended dose): > 90% | Percent Remaining after: 5 hr [5]: 96% | Percent Remaining after: 1 day [5]: 96% | Percent Remaining after: 3 day [5]: 96% | Percent Remaining after: 7 day [5]: 93% | Percent Remaining after: 23 day [5]: 95% | Percent Remaining after: 30 day [5]: 101% | Percent Remaining after: 35 day [5]: 93% | Percent Remaining after: 56 day [5]: 102% | loss of active ingredient [5]: no loss | Percent Remaining after: 0 [5]: 100%

O=c1[nH]sc2ccccc12 [BIT, 1,2-benzisothiazolin-3-one, reference compound]
% Remaining after 2 Days ([1]; H2O2 2 mM, pH 7, 25° C.): 39% | % Remaining after 8 Days ([1]; H2O2 2 mM, pH 7, 25° C.): 15% | % Remaining after 2 Days ([1]; H2O2 2 mM, pH 9, 25° C.): 8% | % Remaining after 8 Days ([1]; H2O2 2 mM, pH 9, 25° C.): 0% | % Remaining after 2 Days ([1]; IAA 2 mM, pH 7, 25° C.): 89% | % Remaining after 8 Days ([1]; IAA 2 mM, pH 7, 25° C.): 86% | % Remaining after 2 Days ([1]; IAA 2 mM, pH 9, 25° C.): 77% | % Remaining after 8 Days ([1]; IAA 2 mM, pH 9, 25° C.): 75% | % Remaining after 2 Days [1, 6]: 0% | % Remaining after 8 Days [1, 6]: 0% | % Remaining after 2 Days [1, 7]: 0% | % Remaining after 8 Days [1, 7]: 0% | % Remaining after 2 Days [1, 8]: 38% | % Remaining after 8 Days [1, 8]: 28% | % Remaining after 2 Days [1, 9]: 82% | % Remaining after 8 Days [1, 9]: 77% | % Remaining after 2 Days ([1]; no redox agent, pH 7, 25° C.): 100% | % Remaining after 8 Days ([1]; no redox agent, pH 7, 25° C.): 100% | % Remaining after 2 Days ([1]; no redox agent, pH 9, 25° C.): 100% | % Remaining after 8 Days ([1]; no redox agent, pH 9, 25° C.): 100% | % Remaining after 2 Days ([1]; t-BHP 2 mM, pH 7, 25° C.): 43% | % Remaining after 8 Days ([1]; t-BHP 2 mM, pH 7, 25° C.): 8% | % Remaining after 2 Days ([1]; t-BHP 2 mM, pH 9, 25° C.): 38% | % Remaining after 8 Days ([1]; t-BHP 2 mM, pH 9, 25° C.): 6% | Minimum Biocidal Concentration [2]: 75 ppm active | Minimum Biocidal Concentration [3]: 188 ppm active | Log Reduction in Mycobacterial Counts versus Control (no biocide) [4, 10]: 0.00 log | Log Reduction in Mycobacterial Counts versus Control (no biocide) [4, 11]: 0.00 log | Log Reduction in Mycobacterial Counts versus Control (no biocide) [4, 12]: 0.00 log | Log Reduction in Mycobacterial Counts versus Control (no biocide) [4, 13]: 0.00 log | Log Reduction in Mycobacterial Counts versus Control (no biocide) [4, 14]: 0.00 log | Log Reduction in Mycobacterial Counts versus Control (no biocide) [4, 15]: 0.60 log | Log Reduction in Mycobacterial Counts versus Control (no biocide) [4, 16]: 0.00 log | Log Reduction in Mycobacterial Counts versus Control (no biocide) [4, 17]: 0.00 log | Log Reduction in Mycobacterial Counts versus Control (no biocide) [4, 18]: 0.00 log | Log Reduction in Mycobacterial Counts versus Control (no biocide) [4, 19]: 0.06 log | Log Reduction in Mycobacterial Counts versus Control (no biocide) [4, 20]: 0.00 log | Log Reduction in Mycobacterial Counts versus Control (no biocide) [4, 21]: 0.00 log | No. of Fluids with ≧99% Kill (2-log reduction) ([4]; 50% of recommended maximum dose): 0 | No. of Fluids with ≧99% Kill (2-log reduction) ([4]; 100% of recommended maximum dose): 0 | Percent Remaining after: 5 hr [5]: 98% | Percent Remaining after: 1 day [5]: 97% | Percent Remaining after: 3 day [5]: 94% | Percent Remaining after: 7 day [5]: 92% | Percent Remaining after: 23 day [5]: 86% | Percent Remaining after: 30 day [5]: 71% | Percent Remaining after: 35 day [5]: 63% | Percent Remaining after: 56 day [5]: 68% | loss of active ingredient [5]: 32% | Percent Remaining after: 0 [5]: 100%
